Here are results for two compounds from ChEMBL document CHEMBL1134063, “Identification of a potent and selective oxytocin antagonist, from screening a fully encoded differential release combinatorial chemical library” (Bioorg Med Chem Lett, 2001).

pIC50: −log10 of the molar value.

In the experiment the target is T1, Oxytocin receptor (Homo sapiens, UniProt P30559).
T1 sequence (P30559 whole entry): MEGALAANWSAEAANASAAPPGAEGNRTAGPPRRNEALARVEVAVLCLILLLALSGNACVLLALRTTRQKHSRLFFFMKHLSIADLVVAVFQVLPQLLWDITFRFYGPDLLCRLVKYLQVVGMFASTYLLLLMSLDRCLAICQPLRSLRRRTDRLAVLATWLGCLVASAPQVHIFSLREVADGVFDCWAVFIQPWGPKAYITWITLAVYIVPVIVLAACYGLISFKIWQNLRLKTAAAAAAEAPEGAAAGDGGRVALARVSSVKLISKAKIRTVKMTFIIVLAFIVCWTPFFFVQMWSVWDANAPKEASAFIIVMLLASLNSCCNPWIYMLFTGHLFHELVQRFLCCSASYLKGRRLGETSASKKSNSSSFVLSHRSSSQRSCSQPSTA
The experiment can be described thus: Inhibitory concentration required for antagonist activity against oxytocin receptor. The format is functional.

Broadly, the pIC50 is −log10 of the IC50, conventionally taken in molar units. A high value points to a low IC50. Compound `CC(=O)CCCC(=O)NC1N=C(c2ccccc2)c2ccccc2N(CC(=O)N[C@@H](Cc2ccc(Cl)c(Cl)c2)C(N)=O)C1=O` (some centres not stated) showed a negative-log IC50 (pIC50) of 8.30.

Turning to `CC(=O)CCCC(=O)NC1N=C(c2ccccc2)c2ccccc2N(CC(=O)N[C@@H](Cc2cccs2)C(N)=O)C1=O` (some centres not stated), the pIC50 is 9.00.
